Results published in PMC10281575, “PfCRT mutations conferring piperaquine resistance in falciparum malaria shape the kinetics of quinoline drug binding and transport” (PLOS Pathogens, 2023).
“And” between values parts separate entries of the source, which are not always exact repeats. Equal values may be shown once.

What was measured:
[1] = biological target: T1, PfCRT^Dd2_H97Y_F145I (Plasmodium falciparum, UniProt Q8IBZ9, A220S/F145I/H97Y/I356T/K76T/M74I/N326S/N75E/Q271E/R371I); assay: Radiolabeled drug uptake in X. laevis oocytes expressing PfCRT^Dd2_H97Y_F145I; assay type: cell-based; conditions: for PfCRTDd2_H97Y_F145I-mediated CQ transport / PfCRTDd2_H97Y_F145I-mediated PPQ transport: individual replicates (Fig 11); for Hc, Hill coefficient / Vmax, maximal velocity of drug transport / Km: Hill equation fit, 10-500 μM drug, pH 6; for Km: read-out: KM, Michaelis constant
T1 construct: expressed in transfected cells; host or cells: Xenopus laevis oocytes injected with in vitro transcribed RNA
T1 sequence (Q8IBZ9 1-424 M74I/N75E/K76T/H97Y/F145I/A220S/Q271E/N326S/I356T/R371I): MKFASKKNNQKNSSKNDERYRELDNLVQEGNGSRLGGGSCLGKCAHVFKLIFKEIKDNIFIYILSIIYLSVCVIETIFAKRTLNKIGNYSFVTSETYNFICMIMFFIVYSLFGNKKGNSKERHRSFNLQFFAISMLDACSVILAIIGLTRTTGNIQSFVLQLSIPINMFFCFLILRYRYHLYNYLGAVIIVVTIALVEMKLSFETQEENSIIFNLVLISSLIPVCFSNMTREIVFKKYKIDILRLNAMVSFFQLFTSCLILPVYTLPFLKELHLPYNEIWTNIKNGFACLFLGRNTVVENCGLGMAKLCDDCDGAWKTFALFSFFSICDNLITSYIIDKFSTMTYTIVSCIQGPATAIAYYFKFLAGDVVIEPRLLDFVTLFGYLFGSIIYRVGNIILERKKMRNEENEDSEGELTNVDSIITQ
Method: Adult female X. laevis frogs (purchased from NASCO) were anesthetized by submersion in a solution of 0.3% (w/v) 3-amino benzoate methanesulfonate for 15 min. Sections of the ovary were surgically removed and placed in Ca^2+-free ND96 buffer supplemented with 0.1% collagenase D (w/v; Roche), 0.5% BSA (w/v) and 9 mM Na2HPO4 at 18°C for 14–16 h while gently shaking. The oocytes were then washed several times with ND96 buffer (5 mM HEPES, pH 7.5, 96 mM NaCl, 2 mM KCl, 1.8 mM CaCl2, 1 mM MgCl2), supplemented with […] gentamycin. Healthy-looking stage V-VI oocytes were manually selected and randomly grouped for injection. A codon-optimized coding sequence of PfCRT was subcloned into the pSP64T expression vector and subsequently linearized using the restriction endonuclease BamHI or SalI (New England Biolabs GmbH). RNA for injection was transcribed in vitro using the mMESSAGE mMACHINE SP6 Transcription kit (Ambion), diluted with nuclease-free water to a final concentration of 0.6 μg/μL and stored at -80°C. RNA was injected using precision-bore glass capillary tubes (3.5-inch glass capillaries; Drummond Scientific Co.), which were pulled on a vertical puller (P-87 Flaming/Brown micropipette puller, Sutter Instrument Co.) and graduated. The micropipettes were connected to a microinjector (Nanoject II Auto-Nanoliter Injector, Drummond Scientific Co.). Injection was conducted under stereomicroscopic control. 50 nL of nuclease-free water alone (control oocytes) or 50 nL of nuclease-free water containing 30 ng of RNA was injected per oocyte. Injected oocytes were kept for 72 h at 18°C in ND96 buffer with two daily buffer changes before being used for further experiments.
Drug transport assays were performed as previously described. Briefly, measurements of radiolabeled drug uptake were made over 1 h, unless otherwise specified. […] Where specified, one or more unlabeled drugs were also present at the indicated concentrations. […] The uptake assays were terminated by removing the oocytes from the reaction medium and washing them three times with 2 mL of ice-cold ND96 buffer. Each oocyte was transferred to a separate scintillation vial and lysed by the addition of 200 μL of a 5% SDS solution. The radioactivity in the sample was measured using a liquid scintillation analyser Tri-Carb 4910 TR (PerkinElmer). Water-injected oocytes were analyzed in parallel as a negative control. The buffer from each condition was measured in duplicate in parallel to each experiment to transform counts per minute into pmol of drug. Drug uptake attributable to PfCRT was determined by subtracting the background uptake from water-injected oocytes from that of PfCRT-expressing oocytes. In all cases, at least three independent experiments were performed on oocytes from different frogs, and for each condition in an experiment, measurements were made from 10 oocytes per treatment.

[2] = test system: Dd2^3D7crt parasites; set-up: method as in Okombo et al. (2022); conditions: ref Okombo et al. (2022); cited from earlier work

| Structure (SMILES) | PfCRTDd2_H97Y_F145I-mediated CQ transport ([1]; 10 µM CQ) | PfCRTDd2_H97Y_F145I-mediated CQ transport ([1]; 50 µM CQ) | PfCRTDd2_H97Y_F145I-mediated CQ transport ([1]; 100 µM CQ) | PfCRTDd2_H97Y_F145I-mediated CQ transport ([1]; 200 µM CQ) | PfCRTDd2_H97Y_F145I-mediated CQ transport ([1]; 300 µM CQ) | PfCRTDd2_H97Y_F145I-mediated CQ transport ([1]; 400 µM CQ) | PfCRTDd2_H97Y_F145I-mediated CQ transport ([1]; 500 µM CQ) | Hc, Hill coefficient [1] | Vmax, maximal velocity of drug transport [1] | Km [1] [µM] | PfCRTDd2_H97Y_F145I-mediated PPQ transport ([1]; 10 µM PPQ) | PfCRTDd2_H97Y_F145I-mediated PPQ transport ([1]; 50 µM PPQ) | PfCRTDd2_H97Y_F145I-mediated PPQ transport ([1]; 100 µM PPQ) | PfCRTDd2_H97Y_F145I-mediated PPQ transport ([1]; 200 µM PPQ) | PfCRTDd2_H97Y_F145I-mediated PPQ transport ([1]; 300 µM PPQ) | PfCRTDd2_H97Y_F145I-mediated PPQ transport ([1]; 400 µM PPQ) | PfCRTDd2_H97Y_F145I-mediated PPQ transport ([1]; 500 µM PPQ) | drug accumulation ratio [2] [fold] |
| --- | --- | --- | --- | --- | --- | --- | --- | --- | --- | --- | --- | --- | --- | --- | --- | --- | --- | --- |
| CCN(CC)CCCC(C)Nc1ccnc2cc(Cl)ccc12 (stereo not drawn) [CQ, chloroquine] | 0.56 pmol oocyte-1 h-1 and 0.57 pmol oocyte-1 h-1 and 0.94 pmol oocyte-1 h-1 | 1.87 pmol oocyte-1 h-1 and 2.38 pmol oocyte-1 h-1 and 2.20 pmol oocyte-1 h-1 and 4.15 pmol oocyte-1 h-1 | 6.01 pmol oocyte-1 h-1 and 3.76 pmol oocyte-1 h-1 and 7.81 pmol oocyte-1 h-1 and 7.54 pmol oocyte-1 h-1 and 7.03 pmol oocyte-1 h-1 | 12.93 pmol oocyte-1 h-1 and 22.31 pmol oocyte-1 h-1 and 9.72 pmol oocyte-1 h-1 and 19.44 pmol oocyte-1 h-1 and 15.86 pmol oocyte-1 h-1 | 22.26 pmol oocyte-1 h-1 and 28.62 pmol oocyte-1 h-1 and 11.32 pmol oocyte-1 h-1 and 17.61 pmol oocyte-1 h-1 | 20.46 pmol oocyte-1 h-1 and 24.94 pmol oocyte-1 h-1 and 27.66 pmol oocyte-1 h-1 | 23.29 pmol oocyte-1 h-1 and 35.24 pmol oocyte-1 h-1 and 26.54 pmol oocyte-1 h-1 and 24.00 pmol oocyte-1 h-1 | 1.6 ± 0.2 | 35 ± 1 pmol oocyte^-1 h^-1 and 35 ± 4 pmol oocyte^-1 h^-1 | 240 ± 40 | – | – | – | – | – | – | – | – |
| Clc1ccc2c(N3CCN(CCCN4CCN(c5ccnc6cc(Cl)ccc56)CC4)CC3)ccnc2c1 [PPQ, piperaquine] | – | – | – | – | – | – | – | 2.0 ± 0.3 | 131 ± 3 pmol oocyte^-1 h^-1 and 131 ± 10 pmol oocyte^-1 h^-1 | 170 ± 20 | 4.45 pmol oocyte-1 h-1 and 2.50 pmol oocyte-1 h-1 and 6.51 pmol oocyte-1 h-1 | 12.64 pmol oocyte-1 h-1 and 8.74 pmol oocyte-1 h-1 and 25.96 pmol oocyte-1 h-1 and 14.99 pmol oocyte-1 h-1 and 20.94 pmol oocyte-1 h-1 | 28.86 pmol oocyte-1 h-1 and 38.51 pmol oocyte-1 h-1 and 10.62 pmol oocyte-1 h-1 and 34.53 pmol oocyte-1 h-1 | 112.27 pmol oocyte-1 h-1 and 50.98 pmol oocyte-1 h-1 and 60.86 pmol oocyte-1 h-1 and 71.21 pmol oocyte-1 h-1 and 85.02 pmol oocyte-1 h-1 | 111.40 pmol oocyte-1 h-1 and 72.67 pmol oocyte-1 h-1 and 112.81 pmol oocyte-1 h-1 and 115.57 pmol oocyte-1 h-1 | 94.84 pmol oocyte-1 h-1 and 111.83 pmol oocyte-1 h-1 and 131.05 pmol oocyte-1 h-1 | 81.84 pmol oocyte-1 h-1 and 171.24 pmol oocyte-1 h-1 and 123.65 pmol oocyte-1 h-1 and 87.38 pmol oocyte-1 h-1 | 2000 |
